According to patent US7312322B1, “Genetic sequences encoding steroid and juvenile hormone receptor polypeptides and insecticidal modalities therefor” (priority 1998, dated 2007):

System: in vitro-translated complex of the M. persicae EcR and USP polypeptides
Experiment: Tritiated ponasterone A filter binding assay with in vitro-translated polypeptides
Set-up: species or system Myzus persicae
Conditions: tritiated ponasterone A 2.2 nM, 90 min, room temperature; complex versus USP or EcR polypeptide alone (FIG. 4)
Experimental: In vitro-translated Myzus persicae EcR (MpEcR) polypeptide and an in vitro-translated M. persicae USP (MpUSP) polypeptide were produced labelled with [^35S]Methionine, using the Promega TNT-Coupled Reticulocyte Lysate System. Each batch of lysate contained 100-200 mg/ml of endogenous proteins (using BSA as a standard). The products were analysed by SDS-PAGE and radioautography. The results confirmed that the cloned cDNAs encode proteins of the sizes predicted from the length of putative open reading frames of the cDNAs present in plasmids pMpEcR and pMPUSP. The yields of EcR and USP were similar as assessed by SDS-PAGE.
In functional assays, DNA plasmids pMpEcR (AGAL Accession No. NM99/04567; […]) or pMpUSP (AGAL Accession No. NM99/04568; […]), which have been constructed using the vector pBK-CMV, and […] of appropriate TNT RNA Polymerase were added to […] of reaction mix which contained TNT Lysate, TNT Reaction Buffer, amino acid mixture, Rnasin Ribonuclease Inhibitor and nuclease-free water in volumes specified in the manufactureFS protocol. […]
After thawing the translation products, […] aliquots of the reaction mixture containing M. persicae EcR and USP polypeptides were combined to promote formation of the EcR/USP complex. […] The receptor bound ligand was quantified using a TriCarb 2100TR scintillation counter.

CC(C)CC[C@@H](O)[C@](C)(O)[C@H]1CC[C@@]2(O)C3=CC(=O)[C@@H]4C[C@@H](O)[C@@H](O)C[C@]4(C)[C@H]3CC[C@]12C [PNA, ponasterone A]
amount of ligand bound to EcR/USP complex: significantly higher amounts
